Series [1] relates to M109-R. Description: In vitro cytotoxicity (growth inhibition, methylene blue). The series is classed as cell-based, mouse. The following applies: M109-R (doxorubicin-resistant); continuous exposure 72 hours. As to the method:
(§1) M109-R and KB-V cell lines are doxorubicin-resistant sublines of M109-S and KB, respectively. The cells were exposed continuously to the drug formulation for 72 hours following the experimental details described by Horowitz, et al., Biochimica et Biophysica Acta, 1109:203-209 (1992) and also in Example 2.
(§2) Cells for each line were exposed continuously to drug for 72 hours. Other experimental details were as described by Horowitz et al., Biochem Biophys Acta, 1109(2):203 (1992). Briefly, 5×10^3 cells from exponentially growing cultures in 200 μL aliquots were plated onto 96-well flat-bottom microtiter plates. […] For each 10-fold increase in drug concentration, six drug concentration points were tested. Each test was performed in triplicate wells and in two parallel plates. The cells were treated continuously for 72 hours. The cultures were fixed by the addition of 50 μL 2.5% glutaraldehyde to each well for 10 minutes. The plates were washed three times with de-ionized water, once with 0.1 M borate buffer (pH 8.5) and then stained for 60 minutes with 100 μL methylene blue (1% in 0.1 M buffer borate, pH 8.5) at room temperature. […] The dye was extracted with 200 μL 0.1 M HCl for 60 min at 37° C. and the optical density was determined using a microplate spectrophotometer.
(§3) The growth rate was calculated by dividing the doubling times of drug-treated cells with those of the control cells.

A further series deals with M109-S. Described as above. The series is classed as cell-based, mouse. Conditions: continuous exposure 72 hours. As to the method:
as §1, §2, §3

Another series has as its system C26. The description is as above. It counts as cell-based, human. Conditions: continuous exposure 72 hours. As to the method:
as §1
(§4) Cells for each line were exposed continuously to drug for 72 hours. Other experimental details were as described by Horowitz et al., Biochem Biophys Acta, 1109(2):203 (1992). Briefly, 5×10^3 cells from exponentially growing cultures in 200 μL aliquots were plated onto 96-well flat-bottom microtiter plates. […] For each 10-fold increase in drug concentration, six drug concentration points were tested. Each test was performed in triplicate wells and in two parallel plates. The cells were treated continuously for 72 hours. The cultures were fixed by the addition of 50 μL 2.5% glutaraldehyde to each well for 10 minutes. The plates were washed three times with de-ionized water, once with 0.1 M borate buffer (pH 8.5) and then stained for 60 minutes with 100 μL methylene blue (1% in 0.1 M buffer borate, pH 8.5) at room temperature. The plates were rinsed in five baths of de-ionized water to remove non-cell bound dye and were then dried. The dye was extracted with 200 μL 0.1 M HCl for 60 min at 37° C. and the optical density was determined using a microplate spectrophotometer.
as §3

Series [2] concerns KB-V. Described as above. The series is classed as cell-based, human. The following applies: KB-V (doxorubicin-resistant); continuous exposure 72 hours. As to the method: as §1, §4, §3
For series [3], the system named is KB. The description is as above. The series is classed as cell-based, human. The following applies: continuous exposure 72 hours. As to the method: as §1, §4, §3
The subject of series [4] is KB-V. Description: In vitro uptake of doxorubicin into tumor cells. The series is classed as cell-based, human. As to the method: (§5) There is a greater drug accumulation in cells treated with lipo-dox-AG than in those treated with lipo-dox-AS.
(§6) Cellular accumulation of doxorubicin was assayed by a method similar to that described in Chambers, S. K. et al., Cancer Res., 49:6275-6279 (1989). […] At the end of the incubation, the cells were rinsed three times with PBS and the drug was extracted from the cells with 1 mL acidified isopropanol (0.075 M HCl in 90% isopropanol), for 20 hours at 4° C. Doxorubicin concentration was determined spectrofluorometrically using an excitation wavelength of 470 nm and an emission wavelength of 590 nm. The fluorescence intensity emitted was translated into doxorubicin-equivalents based on a doxorubicin standard curve, after readings of untreated background cells were subtracted.

In series [5] the test system is KB. Description: In vitro uptake of doxorubicin into tumor cells. It counts as cell-based, human. As to the method: as §5, §6
In series [6] the test system is M109-R. As to the kind of experiment: In vitro uptake of doxorubicin into tumor cells. It counts as cell-based, mouse. The following applies: 24 exposure. As to the method:
as §5, §6

The test system of a further series is C-26 cells. As to the kind of experiment: In vivo therapeutic activity, C-26 tumor survival. The following applies: C-26 tumor i.p., 10 mg/kg i.v. five days after inoculation. Set-up: species or system mice. From the text: Untreated (control) mice died quickly with a median survival of 13 days (not shown).
In another study, mice were inoculated i.p. with C-26 cells (10^6 cells).

Series [7] in a line: Solubility and precipitation of doxorubicin in ammonium salt solutions. The series is classed as physicochemical. As to the method:
The higher release rate is a result of using glucuronate as the balancing anion. […] In addition, doxorubicin precipitates at less than 2 mM concentration in the presence of sulfate ions, while a much higher concentration of doxorubicin is required for precipitation to occur in the presence of glucuronate ions. Accordingly, when glucuronate is the balancing anion, more of the therapeutic agent is in a soluble form and therefore it is more available for release from the liposomes. Further, the permeability of glucuronate through the liposomal membranes is very low, possibly due to its low pKa, its bulkiness and/or polarity, making it very efficient for maintaining the ammonium ion gradient for loading of the therapeutic agents.

Molecules are shown by their SMILES.

The term IC50 denotes the midpoint of a concentration-inhibition curve. A lower IC50 goes with greater potency. Turning to `COc1cccc2c1C(=O)c1c(O)c3c(c(O)c1C2=O)C[C@@](O)(C(=O)CO)C[C@@H]3O[C@H]1C[C@H](N)[C@H](O)[C@H](C)O1` [free doxorubicin, doxorubicin], the 50% inhibitory concentration (IC50) amounted to 2 µM in the series on M109-R [1]; 0.56 µM in the series with M109-S; 0.96 µM in the series on C26; 0.69 µM in the series on KB-V [2]; 0.04 µM in the series on KB [3]. Further, the “Doxorubicin Uptake” value in the series with KB-V [4] (1 hr exposure) was 311 (22) ng DOX/10^6 cells; with KB-V [4] (5 hr exposure), 931 (21) ng DOX/10^6 cells; with KB [5] (1 hr exposure), 426 (33) ng DOX/10^6 cells; with KB [5] (5 hr exposure), 937 (46) ng DOX/10^6 cells; in the series on KB [5] (24 hr exposure), 840 (15) ng DOX/10^6 cells; with M109-R [6], 80 (3) ng DOX/10^6 cells. The “increase in mean survival time over control” value with C-26 cells amounted to 4 days. In the series on C-26 cells, this compound had a mean survival time of 17 days. For the same compound, the “solubility in 250 mM ammonium glucuronate relative to 250 mM ammonium sulfate” value in series [7] (250 mM AG solution vs 250 mM AS solution) is listed as “approximately 100 fold”. Further, in [7] (in the presence of sulfate ions), the “concentration at which doxorubicin precipitates” value is on record as “less than 2 mM”.

These data come from US20100247629A1, “Method for drug loading in liposomes” (Yissum Research Development Company of the Hebrew …, priority 2003, published 2010).
